US10508087B2, “Crystalline forms of trisodium supramolecular complex comprising valsartan and AHU-377 and methods thereof” (CRYSTAL PHARMATECH CO., LTD., priority 2014, dated 2019)
“And” between values parts separate entries of the source, which are not always exact repeats. Equal values may be shown once. “Also recorded” adds a separate entry of the source. Read-outs that look alike come from different tables or passages of the source.

Assays:
[1] = Crystal form stability of drug substance in different temperature and humidity conditions; assay type: physicochemical
Protocol: The drug substance of Form II was subjected to different relative humidity levels at 40° C. (±2° C.), samples were pulled out and evaluated for crystal form after a specified time period, and the results are summarized in Table 10.
The drug substance of Form II was subjected to different temperatures at RH 32% (±5%), samples were pulled out and evaluated for crystal form after a specified time period, the results are summarized in Table 11.
The drug substance of Form II was packed with PE to evaluate the stability.
The drug substance of Form II was stored in sealed glass vial under ambient conditions for 9 months.

[2] = not given; remark: listed apart in the source
[3] = drug substance powder, individual determination, trihydrate

Compound	moisture uptake compared to patent form (DVS) (humidity levels 20% RH to 60% RH at 25° C., hydrate)	Crystal form stability, accelerated ([1]; packed with PE, 40° C., RH 75%, one month)	Crystal form stability ([1]; sealed glass vial, ambient conditions, 9 months)	moisture uptake compared to patent form (DVS) (humidity levels 50% RH to 60% RH at 25° C., trihydrate)	Compressibility Index ([2]; (Tapped Density-Bulk Density)/Tapped Density*100%, individual determination, trihydrate)	Compressibility Index Average ([2]; average of the determinations)	flowability compared with patent form ([2]; by compressibility index)	Bulk Density [2, 3]	Tapped Density [2, 3]	Flowability ([2]; rating by compressibility index, USP<1174>, trihydrate)
CCCCC(=O)N(Cc1ccc(-c2ccccc2-c2nnn[n-]2)cc1)[C@H](C(=O)[O-])C(C)C.CCOC(=O)[C@H](C)C[C@@H](Cc1ccc(-c2ccccc2)cc1)NC(=O)CCC(=O)[O-].O.[Na+].[Na+].[Na+] [Form I, trisodium [3-((1S,3R)-1-biphenyl-4-ylmethyl-3-ethoxycarbonyl-1-butylcarbamoyl) propionate-(S)-3′-methyl-2′-(pentanoyl{2″-(tetrazol-5-ylate)biphenyl-4′-ylmethyl}amino) butyrate] hydrate]	less hygroscopic; also recorded: less moisture uptake									
CCCCC(=O)N(Cc1ccc(-c2ccccc2-c2nnn[n-]2)cc1)[C@H](C(=O)[O-])C(C)C.CCOC(=O)[C@H](C)C[C@@H](Cc1ccc(-c2ccccc2)cc1)NC(=O)CCC(=O)[O-].O.O.O.[Na+].[Na+].[Na+] [Form II, trisodium [3-((1S,3R)-1-biphenyl-4-ylmethyl-3-ethoxycarbonyl-1-butylcarbamoyl) propionate-(S)-3′-methyl-2′-(pentanoyl{2″-(tetrazol-5-ylate)biphenyl-4′-ylmethyl}amino) butyrate] trihydrate]		remained stable	remained stable	less hygroscopic; also recorded: less moisture uptake	22% and 23% (2×)	22%	better	0.197 g/mL and 0.229 g/mL and 0.258 g/mL	0.251 g/mL and 0.297 g/mL and 0.337 g/mL	Passable
